Data set [1] has as its target GLP-1R (Homo sapiens, UniProt P43220). Nature of the data set: GLP-1R activation: cAMP increase in CHO cells stably expressing GLP-1R. In kind it is cell-based.
Data set [2] is described as follows: Microsomal stability, human liver microsomes (predicted hepatic clearance). The following applies: predicted from in vitro microsomal stability data.
The mark [3] stands for this setting: cAMP increase, CHO cells stably expressing GLP-1R, 10 point dose response, 30 minutes incubation, read-out: EC50.

Molecules are shown by their SMILES. Where two headings read alike, the source gives them in different places.

Consider 23 compounds from patent US11702404B2, “GLP-1R modulating compounds” (priority 2019, dated 2023).

GLP-1R, sequence (P43220 24-463): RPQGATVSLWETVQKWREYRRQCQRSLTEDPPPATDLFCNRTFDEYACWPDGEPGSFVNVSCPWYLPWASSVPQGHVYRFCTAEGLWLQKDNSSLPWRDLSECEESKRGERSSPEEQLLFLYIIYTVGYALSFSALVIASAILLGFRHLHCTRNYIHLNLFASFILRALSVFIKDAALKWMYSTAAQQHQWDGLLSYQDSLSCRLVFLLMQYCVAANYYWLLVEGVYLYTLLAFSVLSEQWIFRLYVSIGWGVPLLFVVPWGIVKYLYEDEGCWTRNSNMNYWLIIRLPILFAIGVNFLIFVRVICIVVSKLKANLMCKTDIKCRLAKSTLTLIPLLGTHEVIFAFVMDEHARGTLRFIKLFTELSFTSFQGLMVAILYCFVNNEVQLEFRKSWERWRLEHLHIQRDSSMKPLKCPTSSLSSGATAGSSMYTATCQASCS

For `COCCn1c(Cc2ccc(-c3cccc(OCc4cccc5ccoc45)n3)cc2F)nc2ccc(C(=O)O)cc21` [Example 136, 2-(4-(6-(benzofuran-7-ylmethoxy)pyridin-2-yl)-2-fluorobenzyl)-1-(2-methoxyethyl)-1H-benzo[d]imidazole-6-carboxylic acid], in data set [1] (setting [3]), the EC50 came out at 24.5 nM. Besides, the “Predicted Hepatic Clearance (Pred. Cl.)” value in data set [2] was 9 mL/min/kg.

Regarding `COCCn1c(Cc2ccc(-c3cccc(OCc4cccc(C5CC5)c4)n3)cc2F)nc2ccc(C(=O)O)cc21` [Example 137, 2-(4-(6-((3-cyclopropylbenzyl)oxy)pyridin-2-yl)-2-fluorobenzyl)-1-(2-methoxyethyl)-1H-benzo[d]imidazole-6-carboxylic acid], the EC50 in data set [1] (setting [3]) was 32.2 nM. The “Predicted Hepatic Clearance (Pred. Cl.)” value in data set [2] was 4.83 mL/min/kg.

With `COCCn1c(Cc2ccc(-c3cccc(OCc4cccc(OC(F)F)c4F)n3)cc2F)nc2ccc(C(=O)O)cc21` [Example 138, 2-(4-(6-((3-(difluoromethoxy)-2-fluorobenzyl)oxy)pyridin-2-yl)-2-fluorobenzyl)-1-(2-methoxyethyl)-1H-benzo[d]imidazole-6-carboxylic acid], in data set [1] (setting [3]), the half-maximal effective concentration (EC50) was 84.7 nM. For the same compound, the “Predicted Hepatic Clearance (Pred. Cl.)” value in data set [2] is 7.5 mL/min/kg.

Turning to `COCCn1c(Cc2ccc(-c3cccc(OCc4cccc(OCC(F)F)c4)n3)cc2F)nc2ccc(C(=O)O)cc21` [Example 139, 2-(4-(6-((3-(2,2-difluoroethoxy)benzyl)oxy)pyridin-2-yl)-2-fluorobenzyl)-1-(2-methoxyethyl)-1H-benzo[d]imidazole-6-carboxylic acid], the EC50 in data set [1] (setting [3]) amounted to 26.4 nM. For the same compound, the “Predicted Hepatic Clearance (Pred. Cl.)” value in data set [2] is 7.17 mL/min/kg.

Turning to `COCCn1c(Cc2ccc(-c3cccc(OCc4cccc(OC(F)F)c4OC)n3)cc2F)nc2ccc(C(=O)O)cc21` [Example 140, 2-(4-(6-((3-(difluoromethoxy)-2-methoxybenzyl)oxy)pyridin-2-yl)-2-fluorobenzyl)-1-(2-methoxyethyl)-1H-benzo[d]imidazole-6-carboxylic acid], the EC50 in data set [1] (setting [3]) was 197 nM. Besides, the “Predicted Hepatic Clearance (Pred. Cl.)” value in data set [2] is 9.33 mL/min/kg.

Turning to `COCCn1c(Cc2ccc(-c3cccc(OCc4cc(C(C)C)ccc4F)n3)cc2F)nc2ccc(C(=O)O)cc21` [Example 141, 2-(2-fluoro-4-(6-((2-fluoro-5-isopropylbenzyl)oxy)pyridin-2-yl)benzyl)-1-(2-methoxyethyl)-1H-benzo[d]imidazole-6-carboxylic acid], in data set [1] (setting [3]), the half-maximal effective concentration (EC50) came to 80.3 nM. Also, the “Predicted Hepatic Clearance (Pred. Cl.)” value in data set [2] was 5.5 mL/min/kg.

Turning to `COCCn1c(Cc2ccc(-c3cccc(OCc4cccc(C(C)(C)C#N)c4)n3)cc2F)nc2ccc(C(=O)O)cc21` [Example 142, 2-(4-(6-((3-(2-cyanopropan-2-yl)benzyl)oxy)pyridin-2-yl)-2-fluorobenzyl)-1-(2-methoxyethyl)-1H-benzo[d]imidazole-6-carboxylic acid], the EC50 in data set [1] (setting [3]) came to 162 nM. In addition, the “Predicted Hepatic Clearance (Pred. Cl.)” value in data set [2] is 8.83 mL/min/kg.

With `COCCn1c(Cc2ccc(-c3cccc(OCc4ccc(Cl)c5ccoc45)n3)cc2F)nc2ccc(C(=O)O)cc21` [Example 143, 2-(4-(6-((4-chlorobenzofuran-7-yl)methoxy)pyridin-2-yl)-2-fluorobenzyl)-1-(2-methoxyethyl)-1H-benzo[d]imidazole-6-carboxylic acid], the concentration for a half-maximal effect (EC50) in data set [1] (setting [3]) turned out to be 2.59 nM. Besides, the “Predicted Hepatic Clearance (Pred. Cl.)” value in data set [2] is 5.33 mL/min/kg.

As for `COCCn1c(Cc2ccc(-c3cccc(OCc4cc(C(C)C)ccc4OC)n3)cc2F)nc2ccc(C(=O)O)cc21` [Example 145, 2-(2-fluoro-4-(6-((5-isopropyl-2-methoxybenzyl)oxy)pyridin-2-yl)benzyl)-1-(2-methoxyethyl)-1H-benzo[d]imidazole-6-carboxylic acid], the concentration for a half-maximal effect (EC50) in data set [1] (setting [3]) turned out to be 1730 nM. Also, in data set [2], the “Predicted Hepatic Clearance (Pred. Cl.)” value is 8.3 mL/min/kg.

As for `COCCn1c(Cc2ccc(-c3cccc(OCc4cccc5scnc45)n3)cc2F)nc2ccc(C(=O)O)cc21` [Example 146, 2-(4-(6-(benzo[d]thiazol-4-ylmethoxy)pyridin-2-yl)-2-fluorobenzyl)-1-(2-methoxyethyl)-1H-benzo[d]imidazole-6-carboxylic acid], the EC50 in data set [1] (setting [3]) was determined as 36.4 nM. The “Predicted Hepatic Clearance (Pred. Cl.)” value in data set [2] was 7.33 mL/min/kg.

Consider `COCCn1c(Cc2ccc(-c3cccc(OCc4cccc5c4nnn5C)n3)cc2F)nc2ccc(C(=O)O)cc21` [Example 147, 2-(2-fluoro-4-(6-((1-methyl-1H-benzo[d][1,2,3]triazol-4-yl)methoxy)pyridin-2-yl)benzyl)-1-(2-methoxyethyl)-1H-benzo[d]imidazole-6-carboxylic acid], for which the concentration giving a half-maximal response (EC50) in data set [1] (setting [3]) came out at 760 nM. Also, in data set [2], the “Predicted Hepatic Clearance (Pred. Cl.)” value was 12 mL/min/kg.

As to `COCCn1c(Cc2ccc(-c3cccc(OCc4cccc5ncsc45)n3)cc2F)nc2ccc(C(=O)O)cc21` [Example 148, 2-(4-(6-(benzo[d]thiazol-7-ylmethoxy)pyridin-2-yl)-2-fluorobenzyl)-1-(2-methoxyethyl)-1H-benzo[d]imidazole-6-carboxylic acid], the EC50 in data set [1] (setting [3]) was determined as 2050 nM. In addition, in data set [2], the “Predicted Hepatic Clearance (Pred. Cl.)” value is 11.5 mL/min/kg.

With `COCCn1c(Cc2ccc(-c3cccc(OCc4cccc5c4OC(C)(C)C5)n3)cc2F)nc2ccc(C(=O)O)cc21` [Example 152, 2-(4-(6-((2,2-dimethyl-2,3-dihydrobenzofuran-7-yl)methoxy)pyridin-2-yl)-2-fluorobenzyl)-1-(2-methoxyethyl)-1H-benzo[d]imidazole-6-carboxylic acid], the EC50 in data set [1] (setting [3]) is 130 nM. For the same compound, in data set [2], the “Predicted Hepatic Clearance (Pred. Cl.)” value is 12 mL/min/kg.

In the case of `N#CCC1(Cn2c(Cc3cc(F)c(-c4ccc(F)c(OCc5ccc(C#N)cc5F)n4)cc3F)nc3ccc(C(=O)O)cc32)CC1` [Example 153, 2-(4-(6-((4-cyano-2-fluorobenzyl)oxy)-5-fluoropyridin-2-yl)-2,5-difluorobenzyl)-1-((1-(cyanomethyl)cyclopropyl)methyl)-1H-benzo[d]imidazole-6-carboxylic acid], in data set [1] (setting [3]), the EC50 came out at 0.11 nM. For the same compound, the “Predicted Hepatic Clearance (Pred. Cl.)” value in data set [2] was 5.17 mL/min/kg.

`N#CCC1(Cn2c(Cc3c(F)cc(-c4ccc(F)c(OCc5ccc(C#N)cc5F)n4)cc3F)nc3ccc(C(=O)O)cc32)CC1` [Example 154, 2-(4-(6-((4-cyano-2-fluorobenzyl)oxy)-5-fluoropyridin-2-yl)-2,6-difluorobenzyl)-1-((1-(cyanomethyl)cyclopropyl)methyl)-1H-benzo[d]imidazole-6-carboxylic acid]: the EC50 in data set [1] (setting [3]) amounted to 0.51 nM. Also, the “Predicted Hepatic Clearance (Pred. Cl.)” value in data set [2] is 4.83 mL/min/kg.

`COCCn1c(Cc2ccc(-c3cccc(OCc4cccc(C(C)(C)C)c4)n3)cc2F)nc2ccc(C(=O)O)cc21` [Example 155, 2-(4-(6-((3-(tert-butyl)benzyl)oxy)pyridin-2-yl)-2-fluorobenzyl)-1-(2-methoxyethyl)-1H-benzo[d]imidazole-6-carboxylic acid]: in data set [1] (setting [3]), the EC50 was 73.2 nM. Further, the “Predicted Hepatic Clearance (Pred. Cl.)” value in data set [2] is 5.5 mL/min/kg.

Regarding `COCCn1c(Cc2ccc(-c3cccc(OCc4ccc(Cl)c(C(C)C)c4)n3)cc2F)nc2ccc(C(=O)O)cc21` [Example 156, 2-(4-(6-((4-chloro-3-isopropylbenzyl)oxy)pyridin-2-yl)-2-fluorobenzyl)-1-(2-methoxyethyl)-1H-benzo[d]imidazole-6-carboxylic acid], in data set [1] (setting [3]), the 50% effective concentration (EC50) worked out at 51.5 nM. The “Predicted Hepatic Clearance (Pred. Cl.)” value in data set [2] is 5.5 mL/min/kg.

As for `COCCn1c(Cc2ccc(-c3cccc(OCc4cccc(C(C)C)c4OC)n3)cc2F)nc2ccc(C(=O)O)cc21` [Example 157, 2-(2-fluoro-4-(6-((3-isopropyl-2-methoxybenzyl)oxy)pyridin-2-yl)benzyl)-1-(2-methoxyethyl)-1H-benzo[d]imidazole-6-carboxylic acid], the EC50 in data set [1] (setting [3]) was found to be 534 nM. For the same compound, the “Predicted Hepatic Clearance (Pred. Cl.)” value in data set [2] was 7.67 mL/min/kg.

Take `COCCn1c(Cc2ccc(-c3cccc(OCc4cccc(C(C)C)c4F)n3)cc2F)nc2ccc(C(=O)O)cc21` [Example 158, 2-(2-fluoro-4-(6-((2-fluoro-3-isopropylbenzyl)oxy)pyridin-2-yl)benzyl)-1-(2-methoxyethyl)-1H-benzo[d]imidazole-6-carboxylic acid]: the EC50 in data set [1] (setting [3]) came to 37.1 nM. For the same compound, the “Predicted Hepatic Clearance (Pred. Cl.)” value in data set [2] is 3.83 mL/min/kg.

For the compound `COCCn1c(Cc2cc(F)c(-c3nccc(OCc4ccc(C#N)cc4F)n3)cc2F)nc2ccc(C(=O)O)cc21` [Example 159, 2-(4-(4-((4-cyano-2-fluorobenzyl)oxy)pyrimidin-2-yl)-2,5-difluorobenzyl)-1-(2-methoxyethyl)-1H-benzo[d]imidazole-6-carboxylic acid], the midpoint of the response in data set [1] (EC50 (nM)), the EC50, lay at 7.78 nM. The “Predicted Hepatic Clearance (Pred. Cl.)” value in data set [2] was 6 mL/min/kg.

Take `COCCn1c(Cc2cc(F)c(-c3ncc(F)c(OCc4ccc(C#N)cc4F)n3)cc2F)nc2ccc(C(=O)O)cc21` [Example 160, 2-(4-(4-((4-cyano-2-fluorobenzyl)oxy)-5-fluoropyrimidin-2-yl)-2,5-difluorobenzyl)-1-(2-methoxyethyl)-1H-benzo[d]imidazole-6-carboxylic acid]: the EC50 in data set [1] (setting [3]) is 10.2 nM. The “Predicted Hepatic Clearance (Pred. Cl.)” value in data set [2] was 5 mL/min/kg.

Turning to `N#Cc1ccc(COc2nc(-c3cc(F)c(Cc4nc5ccc(C(=O)O)cc5n4CC4(CF)CC4)cc3F)ncc2F)c(F)c1` [Example 161, 2-(4-(4-((4-cyano-2-fluorobenzyl)oxy)-5-fluoropyrimidin-2-yl)-2,5-difluorobenzyl)-1-((1-(fluoromethyl)cyclopropyl)methyl)-1H-benzo[d]imidazole-6-carboxylic acid], in data set [1] (setting [3]), the EC50 stood at 1 nM. For the same compound, the “Predicted Hepatic Clearance (Pred. Cl.)” value in data set [2] is 3.83 mL/min/kg.

Take `N#CCC1(Cn2c(Cc3ccc(-c4ccc(F)c(OCc5ccc(C#N)cc5F)n4)cc3F)nc3ccc(C(=O)O)cc32)CC1` [Example 162, 2-(4-(6-((4-cyano-2-fluorobenzyl)oxy)-5-fluoropyridin-2-yl)-2-fluorobenzyl)-1-((1-(cyanomethyl)cyclopropyl)methyl)-1H-benzo[d]imidazole-6-carboxylic acid]: the EC50 in data set [1] (setting [3]) is 0.17 nM. The “Predicted Hepatic Clearance (Pred. Cl.)” value in data set [2] was less than 1.83 mL/min/kg.

As usually defined, the EC50 is the concentration that produces a half-maximal response.
